# Measured values as given in patent publication US20240174618A1, “SUBSTITUTED (2-HETEROARYLOXYPHENYL)SULFONATES, SALTS THEREOF AND THEIR USE AS HERBICIDAL AGENTS” (Bayer Aktiengesellschaft, priority 2021, published 2024).
# Key:
# Type in all cases: in vivo
# [1] = test system: Poa annua (POAAN); experiment: A. Herbicidal pre-emergence efficacy, POAAN
# How it was run: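 Applied before emergence onto covering soil at rates of 1280 g/ha or less, using 600 L/ha spray water with 0.5% additive. Scoring: visual % efficacy after ~3 weeks, greenhouse.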
# [2] = test system: Echinochloa crus-galli (ECHCG); experiment: B. Herbicidal post-emergence efficacy, ECHCG; conditions: rated visually after about 3 weeks
# How it was run: (§1)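 Post-emergence greenhouse test: one-leaf-stage plants, compound (WP/EC, +0.5% additive, 600 L/ha water, ≤1280 g/ha) applied to green parts; % efficacy scored visually vs untreated after ~3 wk; 100% = plants died.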
# [3] = test system: Poa annua (POAAN); experiment: B. Herbicidal post-emergence efficacy, POAAN
# How it was run: as §1
# [4] = test system: Abutilon theophrasti (ABUTH); experiment: C. Herbicidal pre-emergence efficacy, ABUTH; conditions: scored after about 3 weeks
# How it was run: (§2)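 Pre-emergence test: formulated compounds sprayed as aqueous suspension or emulsion with 0.5% additive at 600 l/ha onto soil covering sown seeds, at rates corresponding to 320 g/ha or less. After about 3 weeks in greenhouse, efficacy scored visually as percent versus untreated controls (100% = plants dead).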
# [5] = test system: Viola tricolor (VIOTR); experiment: C. Herbicidal pre-emergence efficacy, VIOTR
# How it was run: as §2
# [6] = test system: Pharbitis purpurea (PHBPU); experiment: E. Herbicidal post-emergence efficacy, PHBPU
# How it was run: (§3)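 Visual scoring against untreated plants was done roughly 3 weeks after spraying (0% = no effect, 100% = plants dead). Spray application at 320 g/ha or lower, 600 l/ha water with 0.5% additive, was made onto green parts of one-leaf-stage greenhouse plants grown 2-3 weeks in sandy loam.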
# [7] = test system: Setaria viridis (SETVI); experiment: E. Herbicidal post-emergence efficacy, SETVI
# How it was run: as §3
# [8] = test system: Digitaria sanguinalis (DIGSA); experiment: B. Herbicidal post-emergence efficacy, DIGSA; conditions: 1280 g/ha, rated visually after about 3 weeks
# How it was run: as §1
SMILES,Pre-emergence efficacy against POAAN ([1]; dosage 80 g/ha),Pre-emergence efficacy against POAAN ([1]; dosage 320 g/ha),Pre-emergence efficacy against POAAN ([1]; dosage 1280 g/ha),Post-emergence efficacy against ECHCG in % ([2]; 80 g/ha),Post-emergence efficacy against ECHCG in % ([2]; 320 g/ha),Post-emergence efficacy against ECHCG in % ([2]; 1280 g/ha),Post-emergence efficacy against POAAN ([3]; 80 g/ha),Post-emergence efficacy against POAAN ([3]; 320 g/ha),Post-emergence efficacy against POAAN ([3]; 1280 g/ha),Pre-emergence efficacy against ABUTH ([4]; 80 g/ha),Pre-emergence efficacy against ABUTH ([4]; 320 g/ha),Pre-emergence efficacy against VIOTR in % ([5]; application rate 80 g/ha),Pre-emergence efficacy against VIOTR in % ([5]; application rate 320 g/ha),Post-emergence efficacy against PHBPU in % ([6]; application rate 320 g/ha),Post-emergence efficacy against SETVI in % ([7]; application rate 80 g/ha),Post-emergence efficacy against SETVI in % ([7]; application rate 320 g/ha),Post-emergence efficacy against PHBPU in % ([6]; application rate 80 g/ha),Post-emergence efficacy against DIGSA in % [8]
O=S(=O)(CCCCl)Oc1ccccc1Oc1ncc(Cl)cn1 [Example I-2],100%,100%,100%,90%,100%,100%,90%,100%,100%,100%,100%,100%,100%,100%,100%,100%,,
CCCS(=O)(=O)Oc1ccccc1Oc1ncc(Cl)cn1 [Example I-3],90%,100%,100%,,,90%,,,90%,100%,100%,90%,100%,90%,,90%,,
O=S(=O)(CCCCl)Oc1ccccc1Oc1ncc(F)cn1 [Example I-5],90%,100%,100%,90%,100%,100%,,90%,100%,,100%,100%,100%,80%,90%,100%,,
CCCCS(=O)(=O)Oc1ccccc1Oc1ncc(Cl)cn1 [Example I-6],,90%,90%,,90%,90%,,,100%,90%,100%,80%,90%,100%,90%,100%,80%,
"CC(C)CS(=O)(=O)Oc1ccccc1Oc1ncc(Cl)cn1 [Example I-7, [2-(5-Chloropyrimidin-2-yl)oxyphenyl] 2-methylpropane-1-sulfonate]",100%,100%,100%,,90%,90%,,,90%,,100%,80%,100%,90%,90%,100%,,
O=S(=O)(CCC(F)(F)F)Oc1ccccc1Oc1ncc(Cl)cn1 [Example I-8],90%,100%,100%,,90%,100%,,,90%,100%,100%,90%,90%,100%,90%,90%,,
O=S(=O)(CCCC(F)(F)F)Oc1ccccc1Oc1ncc(Cl)cn1 [Example I-10],100%,100%,100%,100%,100%,100%,,,90%,100%,100%,90%,100%,100%,100%,100%,100%,
Cc1cccc(OS(=O)(=O)CCCCl)c1Oc1ncc(Cl)cn1 [Example I-12],,100%,100%,,,,,,90%,80%,90%,,90%,90%,,90%,90%,
O=S(=O)(CCCCCl)Oc1ccccc1Oc1ncc(Cl)cn1 [Example I-15],100%,100%,100%,90%,100%,100%,,90%,90%,,100%,100%,100%,100%,80%,100%,90%,
CCS(=O)(=O)Oc1ccccc1Oc1ncc(Cl)cn1 [Example I-16],,100%,100%,,,90%,,,100%,,,,,,,,,90%
"Cc1cccc(Oc2ncc(Cl)cn2)c1OS(=O)(=O)CCCC(F)(F)F [Example I-28, 2-[(5-Chloropyrimidin-2-yl)oxy]-6-methylphenyl 4,4,4-trifluorobutane-1-sulfonate]",90%,100%,100%,,90%,100%,,90%,100%,,,,,,,,,90%
Cc1cccc(Oc2ncc(Cl)cn2)c1OS(=O)(=O)CCC(F)(F)F [Example I-29],90%,100%,100%,,90%,100%,,90%,100%,,,,,,,,,100%
O=S(=O)(CCC(F)(F)F)Oc1c(F)cccc1Oc1ncc(F)cn1 [Example I-47],100%,100%,100%,90%,100%,100%,,,,100%,100%,100%,100%,100%,,100%,90%,
